Results on one compound are retold here after patent publication US12077495B2 (priority 2018, dated 2024).

For experiment [1], the target named is T1, CAMK2A (Rattus norvegicus, UniProt P11275).
T1 construct: host or cells: HEK293T
In words: biochemical. Type of experiment: binding. The note with it: whole cell lysates of CAMK2A-transfected HEK293T cells. The procedure: Cells were transfected with rat CAMK2A (Origene construct RR201121) or rat CAMK2B (Origene construct RR200520) using PolyFect (Qiagen, West Sussex, UK) according to the manufacturer's protocol. Whole cell homogenates were prepared 48 hr post-transfection by washing the cells with ice-cold 1×PBS and harvesting by scraping. Cells were collected and centrifuged for 10 min at 1000×g. Cell pellets were resuspended in ice-cold 1×PBS and homogenized using 2×1 mm zirkonium beads in a bullet blender for 20 s at max speed (NextAdvance, NY, USA). Homogenates were cleared by centrifugation (10 min, 4° C., 14.000×g). Protein concentration was determined using the Bradford protein assay. 150-200 μg protein was incubated with 5 nM ^3H-A and test compound in 1 ml total volume for 1 hr at 0-4° C. […] Proteins were then precipitated by addition of ice-cold acetone (4× of the assay volume), vortexing and incubation at −20° C. for 1 hr. Proteins were filtrated rapidly through GF/C unifilters (Whatman) and washed. The dried filters were added scintillation liquid and radioactivity measured on a Tricarb 2100 Scintillation counter (Packard).
A) Principle of photoaffinity labelling workflow. […] After introduction of biotin through a Staudinger-Bertozzi ligation to EZ-Link™ Phosphine-PEG3-Biotin (ThermoFisher Scientific), the biotin-labelled proteins were affinity-purified and subjected to LC-MS/MS analysis. […] C)^3H-A binding to cortical membranes from CAMK2A and CAMK2B knock-out mouse brains.
Human/rat CAMK2A expressed in HEK cells was assayed in an in-house established ^3H-A filtration binding assay performed on whole cell lysates of CAMK2A-transfected HEK293T cells.

The subject of experiment [2] is wild-type and GABAB receptor knock-out mice. In words: Temperature recording (hypothermia) in mice. The note with it: 500 mg/kg i.p.; wild-type or GABAB knock-out mice. Type of experiment: in vivo. The procedure:
Mice were pre-treated with saline injections (0.9% saline) i.p. for 4 days prior to the experiment to minimize stress on the day of the experiment. Experiments were conducted in a quiet room, in which mice were left undisturbed for at least two hrs prior to the experiment. After the i.p. injections, mice were left in their home cages for two hrs, had core body temperature recorded, and were then euthanized. The core body temperature was measured rectally by a thermometer (model DM 852; ELLAB Instruments; Copenhagen, Denmark) via a lubricated thermistor probe (model PRA-22002-A, 2.2 mm diameter; ELLAB Instruments). Mice were held at the base of the tail and measured until a stable temperature measurement was obtained.
By contrast, compound A had no effect on hypothermia in either wild-type or knock-out mice.

Experiment [3] relates to photothrombotic focal ischemia in C57BL/6J mice. In words: Photothrombotic model, behavioural assessment (grid-walking and cylinder tasks). The experiment is classed as in vivo. Particulars: for cylinder task, improvement vs saline / grid-walking task, reduction of asymmetry: 7 days after ischemia. The procedure:
All procedures were performed in accordance with the guidelines on the care and use of laboratory animals set out by the University of Otago, Animal Research Committee and the Guide for Care and Use of Laboratory Animals (NIH Publication No. 85-23, 1996). All in vivo studies were approved by the University of Otago Animal Ethics Committee and are reported according to the ARRIVE (Animal Research: Reporting In Vivo Experiments) guidelines. The photochemical cortical lesion model resembles situations of acute brain injury related clinically to stroke and traumatic brain injury (TBI). Focal ischemia was induced by photothrombosis in male C57BL/6J mice (8-10 weeks) weighing ˜23-30 g as previously described (Clarkson et al., 2010). Under anesthesia with isoflurane (2% to 2.5% in O2) mice were placed in a stereotactic apparatus, the skull exposed through a midline incision, cleared of connective tissue and dried. A cold light source (KL1500 LCD, Zeiss, Auckland, New Zealand) attached to a 40× objective providing a 2-mm diameter illumination was positioned 1.5 mm lateral from bregma. Then, 0.2 ml of Rose Bengal (Sigma-Aldrich, Auckland, New Zealand; 10 mg/ml in normal saline) was administered i.p. After 5 min, the brain was illuminated through the exposed intact skull for 15 min, while keeping body temperature at 37.0±0.3° C. degrees using a heating pad (Harvard apparatus, Holliston, MA, USA). The skin was glued and animals left in a cage placed on a heating pad during the wake-up phase. Mice were housed under a 12-hr light/dark cycle with ad libitum access to food and water. Further, the mice were monitored and weighed on a daily basis.
For in vivo studies, all compounds were dissolved in a mixture of sterile saline and H2O to obtain isotonicity (0.9%) and administered as 10 mg/ml and 10 μl of solution per gram mouse body weight. The injection of compound (i.p.) was performed 30 min, 3, 6 or 12 hrs after induction of the photothrombotic stroke. The vehicle groups received a corresponding volume of saline (0.9%) at the same time points (30 min, 3, 6 or 12 hrs).
Forelimb motor performance was determined using the cylinder and grid-walking tasks as previously described (Clarkson et al., 2010). All animals were tested both in a pre- and post-testing session, 1 week before and 3 days or 7 days after the ischemic insult, respectively. Observers who scored the behaviour were blinded to the treatment groups.

The mark [4] stands for this setting: 175 mg/kg 30 min after ischemia, day 3.

T1 sequence (P11275 whole entry): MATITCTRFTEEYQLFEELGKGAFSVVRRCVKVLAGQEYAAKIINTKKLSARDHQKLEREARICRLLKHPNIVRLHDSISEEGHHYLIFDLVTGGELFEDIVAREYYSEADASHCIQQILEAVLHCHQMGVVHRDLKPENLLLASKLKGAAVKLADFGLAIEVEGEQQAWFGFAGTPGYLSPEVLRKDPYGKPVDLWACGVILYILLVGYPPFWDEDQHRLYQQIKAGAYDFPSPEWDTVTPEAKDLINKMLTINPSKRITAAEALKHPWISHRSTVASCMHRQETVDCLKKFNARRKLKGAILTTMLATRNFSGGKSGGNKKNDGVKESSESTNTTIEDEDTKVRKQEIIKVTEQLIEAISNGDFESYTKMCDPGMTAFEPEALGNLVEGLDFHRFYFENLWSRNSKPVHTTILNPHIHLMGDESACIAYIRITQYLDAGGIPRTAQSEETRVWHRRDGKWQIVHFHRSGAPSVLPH

A word on the Ki: it is the dissociation constant of the complex between target and ligand, obtained from inhibition or displacement. The low end stands for higher affinity, the high end for lower affinity. `O=C(O)C1=CC(O)CC1` (stereo not drawn) [Compound A, 3-hydroxycyclopent-1-enecarboxylic acid]: in experiment [1], the inhibition constant (Ki) was determined as 1950 nM. Moreover, the “effect on body temperature (hypothermia)” value in experiment [2] is given as “no effect”. For the same compound, the “cylinder task, reduction of asymmetry” value in experiment [3] (17.5 mg/kg 30 min after ischemia, day 3) was 40%; in experiment [3] (setting [4]), 42%. Moreover, the “grid-walking task, reduction vs saline” value in experiment [3] (17.5 mg/kg 30 min after ischemia, day 3, non-significant) worked out at 10%. The “grid-walking task, improvement vs saline” value in experiment [3] (setting [4]) is on record as 26%. Moreover, the “cylinder task, improvement vs saline” value in experiment [3] (175 mg/kg 3 hr after ischemia) is 16%; in experiment [3] (175 mg/kg 6 hr after ischemia), 20%; in experiment [3] (175 mg/kg 12 hr after ischemia) it was “non-significant”. The “grid-walking task, reduction of asymmetry” value amounted to 31% in experiment [3] (175 mg/kg 3 hr after ischemia), 22% in experiment [3] (175 mg/kg 6 hr after ischemia) and 21% in experiment [3] (175 mg/kg 12 hr after ischemia).
